Measured values: patent US20240261274A1, “TREATMENT OF MYC-DRIVEN CANCERS WITH GSPT1 DEGRADERS” (MONTE ROSA THERAPEUTICS, INC., priority 2021, published 2024)

What was measured:
N-Myc = N-Myc levels in NCI-H1155 tumors (Compound 345); format: in vivo, mice; details: day 5, 1 mg/kg and 10 mg/kg, strongest effect at 10 mg/kg
Description: Additionally, plasma concentrations of Compound 345 and levels of GSPT1 and […] (relative to vehicle-only control) were measured in a time-course experiment on day 5 for the animals receiving 1 mg/kg and 10 mg/kg.
GSPT1 and N-Myc western blotting analyses from NCI-H1155 tumors: The NCI-H1155 model was run as described previously and tumors were harvested following 5 consecutive daily PO doses of Compound 345 at 1.0 and 10 mg/kg. Tumors were lysed in 1× lysis buffer (CST, Cat. No. 9803, Lot No. 0000122383) supplemented with protease (Sigma, Cat. No. P8340) and phosphatase ((Sigma, Cat. No. P5726 and P0044) cocktail inhibitors using TissueLyser II (QIAGEN #85300). Samples were spined at 15,000 rpm in an Eppendorf microfuge for 15 min at 4° C. The protein supernatant was collected in a new 1.5 ml tube and the protein concentrations were determined by the Pierce BCA kit (Thermo, Cat. No. 23225). The tumor lysate samples were mixed with 5×SDS-PAGE loading buffer boiled for 5 min and brought to ice for 5 min. 30 μg of protein was loaded onto a NUPAGE 4-12% BT gel (Invitrogen, Cat. No. NPO336BOX) for separation. […] Membranes were imaged on the Odyssey imager (Li-COR) using fluorescence or cheminulinescence detection. […] Data are expressed as mean±SEM derived from at least three different mice and collected at 0, 2, 6, 12, 24, 48, 72 and 96 hr as indicated.

[1] = tested on: NCI-1155 NSCLC cell line derived xenograft; assay: NCI-H1155 NSCLC CDX efficacy study (Compound 345); format: in vivo, immunodeficient mice; details: oral daily 1, 3 and 10 mg/kg
Description: Cell line derived xenograft (CDX) models were produced for the NCI-1155 NSCLC cell line in immunodeficient mice. Oral dosing of Compound 345 was performed daily at doses of 1 mg/kg, 3 mg/kg, and 10 mg/kg with a no-drug vehicle control. Tumor volumes were measured (mm^3) at days 3, 7, 10, 14, and 17.
(§1) In vivo efficacy study: NCI-H1155, MM1 S, WSU-DLCL2, DOHH-2 cells were maintained in vitro in individual medium and conditions as recommended by the providers and incubated at 37° C. in an atmosphere of 5% CO2 in air. 0.5 million (NCI-H1155), 10 million (MM1S) or 5 million (WSU-DLCL2 and DOHH-2) cells were resuspended in typically 0.1-0.2 mL of PBS with Matrigel (50:50) and were inoculated into 6-8 weeks old BALB/c nude female (NCI-H115, WSU-DLCL2), NOD/SCID (MM1S) or CB-17SCID (DOHH-2) mice and allowed to grow to 150-200 mm3 in size. Mice were dosed orally (PO) and daily (QD) with either vehicle or Compound 345 typically at 1.0 mg/kg, 3.0 mg/kg and 10 mg/kg. […] Tumor volumes were measured at least twice weekly during the treatment period using a caliper and the volume was expressed in mm3 using the formula: V=0.5 a×b2 where a and b were the long and short diameters of the tumor, respectively. […] Data are expressed as the mean±SEM. All data was analyzed using GraphPad Prism 8.1.2 (GraphPad).

[2] = tested on: DOHH2 lymphoma cell line derived xenograft; assay: DOHH2 lymphoma CDX efficacy study; format: in vivo, immunodeficient mice; details: oral daily 3 mg/kg and 10 mg/kg
Description: Additionally, cell line derived xenograft (CDX) models were produced for lymphoma cell line (DOHH2) in immunodeficient mice. Oral dosing of Compound 345 was performed daily at doses of 3 mg/kg and 10 mg/kg as well as the CHOP combination (a well-known lymphoma treatment regimen) and a no-drug vehicle control. Tumor volumes were measured (mm^3) at regular intervals over the course of up to 30 days depending on the animal.
as §1, with “size.” for “size. Mice were dosed orally (PO) and daily (QD) with either vehicle or Compound 345 typically at 1.0 mg/kg, 3.0 mg/kg and 10 mg/kg.”

With `O=C1CCC(N2Cc3ccc(COC(=O)Nc4cc(OC(F)(F)F)ccc4F)cc3C2=O)C(=O)N1` (stereo not drawn) [Compound 345, (2-(2,6-dioxopiperidin-3-yl)-3-oxoisoindolin-5-yl)methyl(2-fluoro-5-(trifluoromethoxy)phenyl)carbamate] the “N-Myc level relative to vehicle-only control” value (N-Myc) was “substantially reduced”, the tumor volume [1] was “anti-tumor activity and regression” and the tumor volume [2] was “anti-tumor activity”.
